Article PMC12951562, “SH2scan: Mapping SH2 Domain-Ligand Binding Selectivity for Inhibitors and Degraders” (Journal of Medicinal Chemistry, 2026)
Like-named read-outs stand apart in the source and are kept apart here. Non-standard residues stand in square brackets, D forms with d. Residues, ends and D or L forms follow the SMILES beside them. *: point of attachment. pY = N[C@@H](Cc1ccc(OP(=O)(O)O)cc1)C(=O)O; Caffeoyl = O=C(/C=C/c1ccc(O)c(O)c1)*

Tests used:
Test in all cases: biochemical
Type in all cases: binding
TNS3 = molecular target: T1, TNS3 (Homo sapiens, UniProt Q68CZ2); conditions: for remaining activity at 10 µM: read-out: percent of DMSO vehicle control
T1 construct: made in house; host or cells: HEK293 (transient transfection), unpurified extract
T1 sequence (Q68CZ2 1-1445): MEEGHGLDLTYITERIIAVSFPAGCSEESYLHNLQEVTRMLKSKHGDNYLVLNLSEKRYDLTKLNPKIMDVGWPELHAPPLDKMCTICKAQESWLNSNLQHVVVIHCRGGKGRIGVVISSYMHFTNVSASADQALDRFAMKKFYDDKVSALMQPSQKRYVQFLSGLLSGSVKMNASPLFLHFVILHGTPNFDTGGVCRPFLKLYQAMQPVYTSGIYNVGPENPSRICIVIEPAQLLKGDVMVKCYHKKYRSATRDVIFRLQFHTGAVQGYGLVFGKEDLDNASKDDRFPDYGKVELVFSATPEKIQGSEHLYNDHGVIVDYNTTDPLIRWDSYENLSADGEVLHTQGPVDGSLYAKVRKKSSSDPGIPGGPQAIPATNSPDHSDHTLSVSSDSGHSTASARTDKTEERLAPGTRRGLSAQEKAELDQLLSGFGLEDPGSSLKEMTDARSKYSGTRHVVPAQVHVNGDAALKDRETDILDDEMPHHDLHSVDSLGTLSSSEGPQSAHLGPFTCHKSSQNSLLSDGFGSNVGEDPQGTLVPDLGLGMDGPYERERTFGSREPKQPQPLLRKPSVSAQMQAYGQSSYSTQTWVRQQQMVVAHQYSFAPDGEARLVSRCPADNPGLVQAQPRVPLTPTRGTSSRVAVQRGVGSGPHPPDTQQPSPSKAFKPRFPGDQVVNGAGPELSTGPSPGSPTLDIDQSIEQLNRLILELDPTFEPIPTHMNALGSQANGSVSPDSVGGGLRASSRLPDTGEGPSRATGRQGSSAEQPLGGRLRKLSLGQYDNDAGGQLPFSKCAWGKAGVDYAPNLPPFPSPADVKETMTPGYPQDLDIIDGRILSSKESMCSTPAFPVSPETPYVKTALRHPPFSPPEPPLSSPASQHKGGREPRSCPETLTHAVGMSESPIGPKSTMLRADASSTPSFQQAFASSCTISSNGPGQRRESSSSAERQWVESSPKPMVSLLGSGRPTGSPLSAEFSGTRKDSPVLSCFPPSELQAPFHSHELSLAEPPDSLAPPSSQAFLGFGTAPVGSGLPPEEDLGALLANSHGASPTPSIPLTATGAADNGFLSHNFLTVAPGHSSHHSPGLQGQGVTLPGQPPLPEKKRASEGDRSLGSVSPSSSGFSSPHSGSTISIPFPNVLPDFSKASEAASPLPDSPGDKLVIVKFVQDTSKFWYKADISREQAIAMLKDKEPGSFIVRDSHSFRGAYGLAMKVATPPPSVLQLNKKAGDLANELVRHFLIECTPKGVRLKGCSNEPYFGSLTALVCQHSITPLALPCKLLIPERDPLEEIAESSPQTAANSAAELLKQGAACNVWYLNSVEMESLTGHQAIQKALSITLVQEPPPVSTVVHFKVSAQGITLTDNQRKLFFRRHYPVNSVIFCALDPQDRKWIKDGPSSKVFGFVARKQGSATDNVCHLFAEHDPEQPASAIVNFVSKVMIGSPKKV

VAV1 = molecular target: T2, VAV1 (Homo sapiens, UniProt P15498)
T2 construct: made in house; host or cells: HEK293 (transient transfection), unpurified extract
T2 sequence (P15498 1-845): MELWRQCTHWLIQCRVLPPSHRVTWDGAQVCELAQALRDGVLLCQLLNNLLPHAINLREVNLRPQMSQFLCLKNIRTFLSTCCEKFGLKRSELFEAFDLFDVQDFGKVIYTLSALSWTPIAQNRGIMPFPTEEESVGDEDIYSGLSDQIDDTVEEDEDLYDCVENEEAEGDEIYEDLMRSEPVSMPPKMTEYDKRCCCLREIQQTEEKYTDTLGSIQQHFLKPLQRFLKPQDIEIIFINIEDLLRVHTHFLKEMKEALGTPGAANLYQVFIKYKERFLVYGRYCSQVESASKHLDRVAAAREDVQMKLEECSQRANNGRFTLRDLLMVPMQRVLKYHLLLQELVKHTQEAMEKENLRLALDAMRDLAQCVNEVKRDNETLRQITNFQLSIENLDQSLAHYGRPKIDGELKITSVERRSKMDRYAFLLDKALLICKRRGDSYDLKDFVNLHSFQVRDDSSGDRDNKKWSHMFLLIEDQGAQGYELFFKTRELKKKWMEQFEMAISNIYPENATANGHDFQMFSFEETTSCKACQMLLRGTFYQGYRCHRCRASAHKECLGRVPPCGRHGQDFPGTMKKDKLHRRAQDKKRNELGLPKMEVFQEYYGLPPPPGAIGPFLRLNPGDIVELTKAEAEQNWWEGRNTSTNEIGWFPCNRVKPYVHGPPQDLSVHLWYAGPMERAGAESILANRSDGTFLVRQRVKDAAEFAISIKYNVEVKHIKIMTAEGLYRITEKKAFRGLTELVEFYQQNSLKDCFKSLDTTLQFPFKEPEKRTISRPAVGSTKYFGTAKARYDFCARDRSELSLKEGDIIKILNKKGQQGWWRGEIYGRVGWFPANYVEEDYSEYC

HSH2D = molecular target: T3, HSH2D (Homo sapiens, UniProt Q96JZ2)
T3 construct: the DNA-tagged SH2 domain concentrations used in this study were <0.1 nM; made in house; host or cells: HEK293 (transient transfection, unpurified extract)
T3 sequence (Q96JZ2 34-125 limits assumed): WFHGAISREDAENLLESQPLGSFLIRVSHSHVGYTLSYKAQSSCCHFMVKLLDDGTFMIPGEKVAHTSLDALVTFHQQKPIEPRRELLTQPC

ABL1 = molecular target: T4, ABL1 (Homo sapiens, UniProt P00519)
T4 construct: the DNA-tagged SH2 domain concentrations used in this study were <0.1 nM; made in house; host or cells: HEK293 (transient transfection; unpurified extract)
T4 sequence (P00519 127-217 limits assumed): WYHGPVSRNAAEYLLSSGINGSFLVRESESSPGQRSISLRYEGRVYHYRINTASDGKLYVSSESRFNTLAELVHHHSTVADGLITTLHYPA

BLK = molecular target: T5, BLK (Homo sapiens, UniProt P51451); conditions: for remaining activity at 10 µM: read-out: percent of DMSO vehicle control
T5 construct: the DNA-tagged SH2 domain concentrations used in this study were <0.1 nM; made in house; host or cells: HEK293 (transient transfection; unpurified extract)

SH2D6 = molecular target: T6, SH2D6 (Homo sapiens, UniProt Q7Z4S9); conditions: for remaining activity at 10 µM: read-out: percent of DMSO vehicle control
T6 construct: made in house; host or cells: HEK293 (transient transfection), unpurified extract

[1] = read-out: percent of DMSO vehicle control
[2] = primary screen, 10 μM, read-out: percent of DMSO vehicle control

T5 sequence (P51451 124-220 limits assumed): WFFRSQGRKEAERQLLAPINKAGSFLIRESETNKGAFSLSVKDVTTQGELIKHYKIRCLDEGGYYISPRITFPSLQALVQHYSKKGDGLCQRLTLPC
T6 sequence (Q7Z4S9 whole entry): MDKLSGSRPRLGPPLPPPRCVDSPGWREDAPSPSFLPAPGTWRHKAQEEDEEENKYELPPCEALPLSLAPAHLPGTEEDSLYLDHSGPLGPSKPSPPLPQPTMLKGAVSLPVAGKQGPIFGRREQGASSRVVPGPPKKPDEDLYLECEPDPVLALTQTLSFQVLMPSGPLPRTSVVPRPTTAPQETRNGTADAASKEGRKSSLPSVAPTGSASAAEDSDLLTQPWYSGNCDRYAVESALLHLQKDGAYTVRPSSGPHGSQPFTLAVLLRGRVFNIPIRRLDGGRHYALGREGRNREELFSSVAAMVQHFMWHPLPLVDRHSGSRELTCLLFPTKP

Compound	Kd (TNS3) [µM]	Kd (VAV1) [µM]	percent of DMSO vehicle control at 10 µM (VAV1; [1]) [%]	remaining activity at 10 µM (TNS3) [%]	percent of DMSO vehicle control at 10 µM (HSH2D; [1]) [%]	Kd (ABL1) [µM]	percent of DMSO control binding at 10 µM (ABL1; [1]) [%]	remaining activity at 10 µM (BLK) [%]	remaining activity at 10 µM (SH2D6) [%]	other results
CC[C@H](C)[C@H](NC(=O)[C@H](CO)NC(=O)[C@H](CC(C)C)NC(=O)[C@H](CCCNC(=N)N)NC(=O)[C@H](CO)NC(=O)[C@H](CS)NC(C)=O)C(=O)N[C@@H](Cc1ccc(OP(=O)(O)O)cc1)C(=O)N[C@@H](CC(=O)O)C(=O)N[C@@H](CC(N)=O)C(=O)N[C@H](C(=O)N1CCC[C@H]1C(=O)NCC(N)=O)C(C)C [Ac-CSRLSIpYDNVPG-NH2] (Ac-CSRLSI[pY]DNVPG-NH2)	0.12 ± 0.0289									
CC[C@H](C)[C@H](NC(=O)[C@H](CCC(=O)O)NC(=O)[C@H](CCC(=O)O)NC(=O)[C@H](Cc1ccc(OP(=O)(O)O)cc1)NC(C)=O)C(=O)N[C@@H](CCC(=O)O)C(N)=O [Ac-pYEEIE-NH2] (Ac-[pY]EEIE-NH2)										percent of DMSO vehicle control (VAV1; primary screen, 10 μM): 87.2±8.1%; percent of DMSO vehicle control (TNS3; primary screen, 10 μM): 83.2±4.0%; percent of DMSO vehicle control (HSH2D; primary screen, 10 μM): 127.4%; percent of DMSO vehicle control (ABL1; primary screen, 10 μM): 106.1%; percent of DMSO vehicle control (BLK; primary screen, 10 μM): 47.8%; percent of DMSO vehicle control (SH2D6; primary screen, 10 μM): 100.6%
CC(=O)N[C@@H](Cc1ccc(CP(=O)(O)O)cc1)C(=O)NC1(C(=O)N[C@@H](CC(N)=O)C(=O)NCCCc2c(O)ccc3ccccc23)CCCCC1 [CGP78850]	0.62	0.26	1.8 ± 0.4	9.8 ± 0.1	8.1 ± 6.6	0.56 ± 0.36	3.1 ± 1.7	42.1 ± 4.6	89.5 ± 8.4	Kd (HSH2D): 1.6 ± 0.35 µM
CC[C@H](C)[C@H](NC(=O)[C@H](CCC(=O)O)NC(=O)[C@H](CCC(=O)O)NC(=O)[C@H](Cc1ccc(OP(=O)(O)O)cc1)NC(=O)/C=C/c1ccc(O)c(O)c1)C(=O)N[C@@H](CCC(=O)O)C(=O)O [Caffeic acid-pYEEIE] (Caffeoyl-[pY]EEIE-OH)	1 ± 0.21	0.84 ± 0.53	1.6 ± 0.6	1.8 ± 0.6	80.3 ± 18.6	0.105 ± 0.017	0	0.1	36.4 ± 4.5	Kd (BLK): 0.0015 ± 0.00069 µM; Kd (SH2D6): 14.5 ± 2.89 µM
O=C(CCl)Nc1cccc(CNC(=O)[C@H](Cc2ccc(OP(=O)(O)O)cc2)NC(=O)Cc2ccc(F)cc2)c1 [MN551]										remaining activity at 10 µM (VAV1; [2]): 109%; remaining activity at 10 µM (TNS3; primary screen, 10 μM): 48.5 ± 7.3%; Kd (HSH2D; dose-response, read-out: KD): 8.7 µM; remaining activity at 10 µM (HSH2D; [2]): 3 ± 0.2%; remaining activity at 10 µM (ABL1; [2]): 35.7 ± 4.3%; remaining activity at 10 µM (BLK; primary screen, 10 μM): 116%; remaining activity at 10 µM (SH2D6; primary screen, 10 μM): 93.6 ± 4.8%
